Experimental data from patent publication US7435837B2, “Dihydrobenzofuranyl alkanamine derivatives and methods for using same” (Wyeth, priority 2003, dated 2008).
pEC50, pKi: −log10 of the molar value.

Legend:
[1] = target: T1, human 5-hydroxytryptamine-2C (h5-HT2C) receptor (Homo sapiens, UniProt P28335); assay: [125I]DOI binding to membranes of CHO cells expressing the human 5-HT2C receptor; conditions: [125I]DOI radioligand, CHO cell membranes, room temperature 60 min; read-out: 5-HT2C Affinity Ki
T1 construct: expressed in transfected cells; host or cells: CHO (Chinese Hamster Ovary) cells; membranes
T1 sequence (P28335 33-458): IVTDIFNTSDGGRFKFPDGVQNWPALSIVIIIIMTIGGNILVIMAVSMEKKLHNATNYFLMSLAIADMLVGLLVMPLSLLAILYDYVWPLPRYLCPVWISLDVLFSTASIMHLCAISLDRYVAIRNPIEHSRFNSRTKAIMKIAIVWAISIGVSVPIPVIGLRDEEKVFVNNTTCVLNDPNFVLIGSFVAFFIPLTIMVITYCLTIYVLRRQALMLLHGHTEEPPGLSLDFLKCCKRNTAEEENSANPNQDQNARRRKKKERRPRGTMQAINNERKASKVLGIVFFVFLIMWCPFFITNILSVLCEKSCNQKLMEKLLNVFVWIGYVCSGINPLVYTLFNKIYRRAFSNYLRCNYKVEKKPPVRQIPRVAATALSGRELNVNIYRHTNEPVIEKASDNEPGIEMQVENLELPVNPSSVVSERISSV

human 5-HT2C receptor = target: T2, human 5-HT2C receptor (Homo sapiens, UniProt P28335); assay: 5-HT2C receptor-stimulated calcium mobilization (FLIPR) in CHO cells; format: cell-based; conditions: for pEC50: calcium mobilization, CHO cells stably expressing human 5-HT2C, read-out: 5-HT2C Function EC50; for 5-HT2C Function Emax (%) / Emax: percentage of the response observed with a maximally effective concentration of 5-HT; for Emax: CHO, read-out: 5-HT2C Function Emax (%);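 as to all read-outs here: Fluo-3-AM fluorescence read on FLIPR every 1 s, agonist added after 10 baseline reads, response taken as peak minus lowest raw fluorescence count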
T2 sequence (P28335 33-458): T1 sequence (P28335 33-458)

Row | SMILES | pKi [1] | pEC50 (human 5-HT2C receptor) | 5-HT2C Function Emax (%) (human 5-HT2C receptor) | Emax (human 5-HT2C receptor)
1 | Cc1cccc(C)c1-c1cccc2c1OC(CN)C2 (racemic) [Example 56, (±)-1-[7-(2,6-dimethylphenyl)-2,3-dihydro-1-benzofuran-2-yl]methanamine] | 9.00 | 7.22 |  | 100%
2 | CNCC1Cc2cccc(-c3ccc(OC)cc3)c2O1 (racemic) [Example 421, (±)-[(N-methyl-1-[7-(4-methoxyphenyl)-2,3-dihydro-1-benzofuran-2-yl]methanamine] | 8.82 | 7.03 |  | 70%
3 | Cc1cccc(C)c1-c1cccc2c1OC(CN)C2 (single isomer, unassigned; (+)) [Example 58, (+)-1-[7-(2,6-dimethylphenyl)-2,3-dihydro-1-benzofuran-2-yl]methanamine] | 8.05 | 6.50 | 60% | 
4 | NCC1Cc2cccc(-c3ccccc3)c2O1 (single isomer, unassigned; (-)) [Example 38, (−)-1-(7-phenyl-2,3-dihydro-1-benzofuran-2-yl)methanamine] | 7.25 | 6.27 |  | 100%
5 | NCC1Cc2cccc(-c3cccnc3)c2O1 (racemic) [Example 170, (±)-[(7-pyridin-3-yl-2,3-dihydro-1-benzofuran-2-yl)methyl]amine] | 8.48 | 7.85 |  | 90%
6 | CNCC1Cc2cccc(-c3c(Cl)cccc3Cl)c2O1 (single isomer, unassigned; (-)) [Example 434, (−)-{[7-(2,6-dichlorophenyl)-2,3-dihydro-1-benzofuran-2-yl]methyl}methylamine] | 10.52 | 8.15 |  | 90%
7 | COc1ccc(Cl)cc1-c1cccc2c1OC(CN)C2 (racemic) [Example 169, (±)-{[7-(5-chloro-2-methoxyphenyl)-2,3-dihydro-1-benzofuran-2-yl]methyl}amine] | 7.85 | 7.30 |  | 100%
8 | CC(C)(C)c1cc(Cl)cc2c1OC(CN)C2 (single isomer, unassigned; (+)) [Example 29, (+)-1-(7-tert-butyl-5-chloro-2,3-dihydro-1-benzofuran-2-yl)methanamine] | 7.46 | 6.64 | 80% | 
9 | COc1cc2c(c(-c3cc(Cl)ccc3Cl)c1)OC(CN)C2 (racemic) [Example 367, (±)-{[7-(2,5-dichlorophenyl)-5-methoxy-2,3-dihydro-1-benzofuran-2-yl]methyl}amine] | 9.68 | 8.52 |  | 100%
10 | NCC1Cc2cccc(-c3ccc(C(F)(F)F)cc3)c2O1 (racemic) [Example 82, (±)-1 {7-[4-(trifluoromethyl)phenyl]-2,3-dihydro-1-benzofuran-2-yl}methanamine] | 7.82 | 6.56 |  | 95%
11 | CNCC1Cc2cc(OC)cc(-c3cc(OC)ccc3OC)c2O1 (racemic) [Example 501, (±)-{[7-(2,5-dimethoxyphenyl)-5-methoxy-2,3-dihydro-1-benzofuran-2-yl]methyl}methylamine] | 7.35 | 7.15 |  | 70%
12 | CNCC1Cc2cc(OC)cc(-c3c(C)cccc3C)c2O1 (single isomer, unassigned; (+)) [Example 561, (+)-{[7-(2,6-dimethylphenyl)-5-methoxy-2,3-dihydro-1-benzofuran-2-yl]methyl}methylamine] | 8.57 | 7.68 | 80% | 
13 | CNCC1Cc2cc(OC)cc(-c3cc(Cl)ccc3Cl)c2O1 (racemic) [Example 499, (±)-{[7-(2,5-dichlorophenyl)-5-methoxy-2,3-dihydro-1-benzofuran-2-yl]methyl}methylamine] | 8.44 | 7.24 |  | 90%
14 | NCC1Cc2cc(F)cc(-c3ccsc3)c2O1 (racemic) [Example 203, (±)-[(5-fluoro-7-thien-3-yl-2,3-dihydro-1-benzofuran-2-yl)methyl]amine] | 8.07 | 6.73 |  | 80%
15 | COc1ccccc1-c1cccc2c1OC(CN)C2 (single isomer, unassigned; (+)) [Example 128, (+)-1-[7-(2-methoxyphenyl)-2,3-dihydro-1-benzofuran-2-yl]methanamine] | 7.39 | 7.62 |  | 70%
16 | NCC1Cc2cc(C3CCCC3)cc(-c3ccccc3Cl)c2O1 (racemic) [Example 310, (±)-{[5-cyclopentyl-7-(2-chlorophenyl)-2,3-dihydro-1-benzofuran-2-yl]methyl}amine] | 7.89 | 6.86 |  | 90%
17 | NCC1Cc2cccc(-c3ccc(Cl)cc3)c2O1 (single isomer, unassigned; (+)) [Example 77, (+)-1-[7-(4-chlorophenyl)-2,3-dihydro-1-benzofuran-2-yl]methanamine] | 8.70 | 8.10 |  | 100%
18 | COc1ccc(-c2cc(F)cc3c2OC(CN)C3)c(OC)c1 (racemic) [Example 219, (±)-{[7-(2,4-dimethoxyphenyl)-5-fluoro-2,3-dihydro-1-benzofuran-2-yl]methyl}amine] | 8.15 | 7.10 |  | 90%
19 | COc1ccc(-c2cc(Cl)cc3c2OC(CN)C3)c(OC)c1 (racemic) [Example 254, (±)-{[5-chloro-7-(2,4-dimethoxyphenyl)-2,3-dihydro-1-benzofuran-2-yl]methyl}amine] | 9.05 | 7.96 |  | 90%
20 | CNCC1Cc2cc(OC)cc(-c3cccc(Cl)c3Cl)c2O1 (racemic) [Example 495, (±)-{[7-(2,3-dichlorophenyl)-5-methoxy-2,3-dihydro-1-benzofuran-2-yl]methyl}methylamine] | 7.39 | 6.47 |  | 60%
21 | COc1ccc(OC)c(-c2cc(F)cc3c2OC(CN)C3)c1 (racemic) [Example 223, (±)-{[7-(2,5-dimethoxyphenyl)-5-fluoro-2,3-dihydro-1-benzofuran-2-yl]methyl}amine] | 8.00 | 7.52 |  | 80%

The remaining lines, values ahead:

Row | pKi [1] | pEC50 (human 5-HT2C receptor) | 5-HT2C Function Emax (%) (human 5-HT2C receptor) | Emax (human 5-HT2C receptor) | SMILES
22 | 8.00 | 6.88 | 80% |  | Cc1ccccc1-c1cccc2c1OC(CN)C2 (single isomer, unassigned; (-)) [Example 49, (−)-1-[7-(2-methylphenyl)-2,3-dihydro-1-benzofuran-2-yl]methanamine]
23 | 8.49 | 7.60 |  | 80% | CNCC1Cc2cc(C)cc(-c3ccccc3F)c2O1 (racemic) [Example 475, (±)-{[7-(2-fluorophenyl)-5-methyl-2,3-dihydro-1-benzofuran-2-yl]methyl}methylamine]
24 | 7.39 | 8.70 |  | 70% | COc1cc2c(c(-c3ccccc3OC)c1)OC(CCN)C2 (racemic) [Example 554, (±)-{2-[7-(2-methoxyphenyl)-5-methoxy-2,3-dihydro-1-benzofuran-2-yl]ethyl}amine]
25 | 8.00 | 8.10 |  | 90% | COc1cc2c(c(-c3ccccc3OC)c1)OC(CN)C2 (racemic) [Example 359, (±)-{[7-(2-methoxyphenyl)-5-methoxy-2,3-dihydro-1-benzofuran-2-yl]methyl}amine]
26 | 8.42 | 7.46 |  | 90% | Cc1cc2c(c(-c3ccccc3)c1)OC(CN)C2 (racemic) [Example 281, (±)-{[(5-methyl-7-phenyl-2,3-dihydro-1-benzofuran-2-yl)methyl]amine]
27 | 8.70 | 7.51 |  | 90% | Cc1cc2c(c(-c3c(C)cccc3C)c1)OC(CN)C2 (racemic) [Example 301, (±)-{[7-(2,6-dimethylphenyl)-5-methyl-2,3-dihydro-1-benzofuran-2-yl]methyl}amine]
28 | 8.92 | 8.22 |  | 100% | Cc1cc2c(c(-c3ccccc3F)c1)OC(CN)C2 (racemic) [Example 283, (±)-{[7-(2-fluorophenyl)-5-methyl-2,3-dihydro-1-benzofuran-2-yl]methyl}amine]
29 | 8.52 | 7.32 |  | 90% | COc1ccccc1-c1cc(Cl)cc2c1OC(CN)C2 (racemic) [Example 242, (±)-{[5-chloro-7-(2-methoxyphenyl)-2,3-dihydro-1-benzofuran-2-yl]methyl}amine]
30 | 7.60 | 7.72 |  | 90% | NCC1Cc2cc(C(F)(F)F)cc(-c3ccccc3Cl)c2O1 (racemic) [Example 315, (±)-{[5-(trifluoromethyl)-7-(2-chlorophenyl)-2,3-dihydro-1-benzofuran-2-yl]methyl}amine]
31 | 9.85 | 10.00 |  | 100% | CNC[C@H]1Cc2cc(F)cc(-c3ccccc3Cl)c2O1 [Example 545, (R)-[7-(2-chloro-phenyl)-5-fluoro-2,3-dihydro-benzofuran-2-ylmethyl]-methyl-amine]
32 | 8.18 | 6.69 | 70% |  | NCC1Cc2cc(F)cc(-c3ccccc3C(F)(F)F)c2O1 (single isomer, unassigned; (+)) [Example 152, (+)-1-{5-fluoro-7-[2-(trifluoromethyl)phenyl]-2,3-dihydro-1-benzofuran-2-yl}methanamine]
